Results on one molecule are retold here after patent publication US20070142433A1, “Angiogenesis-affecting compounds and methods of use thereof” (priority 2004, published 2007).

Where a name gives a salt, the structure may show the parent alone.

One assay deals with A375. Briefly: Cytoviability assay (resazurin), A375. As to conditions: Homo sapiens, A-375, 24 hours after treatment, read-out: IC50 cell viability A375. The format is cell-based. As to the method:
(§1) A cell viability assay based on cellular reduction of resazurin to the fluorescent product resorufin was performed. Viable cells can metabolize and reduce the dye, whereas dead cells rapidly lose the capacity to do so, making the increase in fluorescence directly proportional to the number of viable cells. The tested compounds were added in a log2 titration and viable cells were analyzed 24 hours after treatment. The fluorescence was determined at an excitation wavelength of 560 nm and an emission wavelength of 590 nm. The percentage of viable cells in relation to the untreated control proliferation was calculated. […] Perhexiline results are depicted graphically in FIGS. 6A-6C and Erythromycin results in FIGS. 7A-7C.
Background: The colour change of resazurin is a common sign of viable cells or microbes.

Assay [1] relates to HUVEC. Briefly: Cytoviability assay (resazurin), HUVEC. The format is cell-based. As to conditions: Homo sapiens, 24 hours after treatment, read-out: IC50 cell viability HUVEC. As to the method: as §1
The next assay has as its system SMC. Briefly: Cell proliferation assay (crystal violet), SMC. Type of assay: cell-based. As to conditions: 72 hours, OD 595 nm. As to the method:
In order to further confirm the surprising results described above, the compounds were tested in a cell proliferation assay. Crystal violet was used to measure cell proliferation; this basic dye stains cell nuclei and provides a sensitive, rapid evaluation. Light absorption of unstained or destained cell layers is negligible, making it possible to perform cell number measurements in wells. Six cell types (HUVEC, HDMEC, SMC, Fibroblast, A375 and RENCA) were plated and treated with the compounds in a log2 titration for 72 hours. The optimal cell number for each cell type was determined and optical density (OD) was measured at 595 nm. Each data point was measured in quadruplicate. The assay was stopped after 72 hours and subsequently analyzed. The OD-value of the plated cells before addition of the compounds was subtracted from all OD-values obtained after treatment. The percentage in relation to control proliferation was then calculated. Negative values therefore represent a count of fewer cells than were plated. The IC50 is given below in Table 1. Results are shown as a percentage in relation to the control proliferation. The IC50 were calculated using GraphPad Prism software (GraphPad Software, Inc.). Perhexiline results are depicted graphically in FIGS. 4A-4C and Erythromycin results in FIGS. 5A-5C.

In assay [2] the test system is HUVEC. As to the kind of experiment: Cell proliferation assay (crystal violet), HUVEC. Type of assay: cell-based. The conditions noted are these: Homo sapiens, 72 hours, OD 595 nm. As to the method:
In order to further confirm the surprising results described above, the compounds were tested in a cell proliferation assay. Crystal violet was used to measure cell proliferation; this basic dye stains cell nuclei and provides a sensitive, rapid evaluation. Light absorption of unstained or destained cell layers is negligible, making it possible to perform cell number measurements in wells.
Six cell types (HUVEC, HDMEC, SMC, Fibroblast, A375 and RENCA) were plated and treated with the compounds in a log2 titration for 72 hours. The optimal cell number for each cell type was determined and optical density (OD) was measured at 595 nm. Each data point was measured in quadruplicate. The assay was stopped after 72 hours and subsequently analyzed.
The OD-value of the plated cells before addition of the compounds was subtracted from all OD-values obtained after treatment. The percentage in relation to control proliferation was then calculated. Negative values therefore represent a count of fewer cells than were plated. The IC50 is given below in Table 1. Results are shown as a percentage in relation to the control proliferation. The IC50 were calculated using GraphPad Prism software (GraphPad Software, Inc.). Perhexiline results are depicted graphically in FIGS. 4A-4C and Erythromycin results in FIGS. 5A-5C. […]

In another assay the test system is Fibroblast. As to the kind of experiment: Cytoviability assay (resazurin), Fibroblast. Type of assay: cell-based. As to conditions: 24 hours after treatment, read-out: IC50 cell viability Fibroblast. As to the method:
as §1

Assay [3] concerns Alexander cells (PLC/PRF/5) subcutaneous tumor. As to the kind of experiment: Hepato-Cellular Carcinoma Model (HCC) in vivo study, subcutaneous Alexander cells. Also noted: species or system NMRI nu/nu mice.
Experimental: Monolayers of Alexander cells can be grown in 85% Dulbecco's Modified Eagle's Medium (DMEM), 15% Fetal Bovine Serum (FBS), 4 mM L-glutamine, 100 units penicillinG/ml, and 100 μg of streptomycin-sulfate/ml. The cells can be cultured in a humidified atmosphere of 90% air and 10% carbon dioxide at 37° C. Media may preferably be changed every 4 days.
Six to eight week old female NMRI^−nu/nu mice could be utilized. The Alexander cells can be implanted in the left flank region of the mice, for example, by injecting 4×10^7 cells in 0.2 ml aliquots into the subcutaneous space of the left flank using a 29 G needle syringe. After inoculation the appearing subcutaneous tumours can be measured by callipering and multiplying the distances of all three dimensions.
Therapy can be initiated after the tumor size has reached a volume of approximately 100 mm^3 (day 1 of the study), and continue for about 21 days.
As shown, Group 1 would serve as control, where the animals would receive no further treatment after injection of Alexander cells.
After approximately 21 days of treatment, mice could be sacrificed and tumors collected and optionally stored appropriately at −80° C. For histological examination of the tumor vasculature, cryosections of the tissues (thickness of 5-10 μm) can be taken. For visualization of the blood vessels, immunohistochemical staining for CD 31 (PECAM-1) can be performed, and vessels counted microscopically using a defined magnification (×200).

Turning to `C1CCC(C(CC2CCCCN2)C2CCCCC2)CC1` (stereo not shown) [Perhexiline, Perhexiline maleate], the IC50 turned out to be 10 µM in the assay with A375; 8.4 µM with HUVEC [1]; 14 µM in the assay on SMC; 10 µM in the assay on HUVEC [2]; 5.2 µM in the assay on Fibroblast. Besides, the “tumor growth compared to control” value in assay [3] (subcutaneous Alexander cell tumors in mice, about 21 days of treatment, FIGS. 28-30) was “reduced”. Also, the vessel density result in assay [3] (tumor vasculature, FIG. 36) is “significant effect on vessel density”.

One may read the IC50 as the point on the concentration scale where inhibition reaches its midpoint.
